Results: patent US9828386B2 (priority 2013, dated 2017)
Read-outs that look alike come from different tables or passages of the source.

Legend:
Test in all cases: cells
Type in all cases: cell-based
[1] = test system: BGC823 cell line; settings: read-out: IC50 (μM) BGC823
Protocol: (§1) Test of compounds of embodiment of the present invention on inhibiting tumor cell activity
(§2) 3, cell lines: A549, BGC823, Hela cell line and normal human hepatocytes which are available from Wu Han boster Co., Ltd.;
(§3) A549, BGC823, Hela cell line and normal human hepatocytes in logarithmic growth phase are subjected to 1000 rpm centrifugation for 5 min, supernatant is then discarded, moderate medium is suspended, the cell concentration is adjusted to 3.5×10^4/well, the cells were seeded in 96-wells culture plate, and following experimental groups are set:
(§4) a negative control group; 35 test groups with same concentration (ie: groups of Compound (1) to Compound (35)); three control groups: groups of podophyllotoxin, 4′-demethylepipodophyllotoxin and etoposide.
(§5) Taking RPMI1640 containing 10% of calf serum as nutrient solution, 0.10 mL of cells per well is incubated under conditions of 37° C., 5% CO2 and saturated humidity for 24 h to nearly be covered, then the nutrient solution is discarded. […] 100 μl of DMSO is added to each well, then vibrated at 37° C. by shaker table for 30 min, then measuring absorbance (OD) at 492 nm, calculating MTT ratio=OD value of drug group/OD value of the negative control group.

[2] = test system: Hela cell line; settings: read-out: IC50 (μM) Hela
Protocol: as §1, §2, §3, §4, §5

[3] = test system: A549 cell line; settings: read-out: IC50 (μM) A549
Protocol: as §1, §2, §3, §4, §5

[4] = BGC823 cells, MTT, 48 h cultivation
[5] = Hela cells, MTT, 48 h cultivation
[6] = A549 cells, MTT, 48 h cultivation

SMILES	IC50 [1, 4] [µM]	IC50 [2, 5] [µM]	IC50 [3, 6] [µM]	IC50 ([1]; Homo sapiens, BGC-823, 48 h) [µM]	IC50 ([2]; Homo sapiens, HeLa, 48 h) [µM]	IC50 ([3]; Homo sapiens, A549, 48 h) [µM]
COc1cc(C2c3cc4c(cc3C(Sc3nc5ccccc5o3)C3COC(=O)C23)OCO4)cc(OC)c1O (stereo not drawn) [Compound 31, 4-S-(benzoxazole-2)-4-deoxy-4′-demethylepipodophyllotoxin]	1.36 ± 0.2	0.13 ± 0.01	1.46 ± 0.89			
COc1cc(C2c3cc4c(cc3C(Sc3n[nH]c(NS(=O)(=O)c5ccc(C)cc5)n3)C3COC(=O)C23)OCO4)cc(OC)c1O (stereo not drawn) [Compound 32, 4-S-[3-N-(4-methyl-benzenesulfonamide-)-1,2,4-triazole-5-]-4-deoxy-4′-demethylepipodophyllotoxin]	0.67 ± 0.22	0.53 ± 0.17	1.67 ± 0.28			
COc1ccc(S(=O)(=O)Nc2nc(SC3c4cc5c(cc4C(c4cc(OC)c(O)c(OC)c4)C4C(=O)OCC34)OCO5)n[nH]2)cc1 (stereo not drawn) [Compound 33, 4-S-[3-N-(4-methoxy-benzenesulfonamide-)-1,2,4-triazole-5-]-4-deoxy-4′-demethylepipodophyllotoxin]	1.27 ± 0.53	1.56 ± 0.88	1.37 ± 2.15			
COc1cc(C2c3cc4c(cc3C(Sc3nnc(NS(=O)(=O)c5ccc(C)cc5)s3)C3COC(=O)C23)OCO4)cc(OC)c1O (stereo not drawn) [Compound 34, 4-S-[2-N-(4-methyl-benzenesulfonamide-)-1,3,4-thiadiazole-5-]-4-deoxy-4′-demethylepipodophyllotoxin]	0.85 ± 0.43	2.11 ± 0.34	5.89 ± 0.74			
COc1ccc(S(=O)(=O)Nc2nnc(SC3c4cc5c(cc4C(c4cc(OC)c(O)c(OC)c4)C4C(=O)OCC34)OCO5)s2)cc1 (stereo not drawn) [Compound 35, 4-S-[2-N-(4-methoxy-benzenesulfonamide-)-1,3,4-thiadiazole-5-]-4-deoxy-4′-demethylepipodophyllotoxin]	2.23 ± 0.69	1.19 ± 0.57	0.84 ± 0.62			
COc1cc([C@@H]2c3cc4c(cc3[C@H](O)[C@H]3COC(=O)[C@H]23)OCO4)cc(OC)c1OC [podophyllotoxin, reference compound]				75.81 ± 0.73	55.53 ± 0.24	67.18 ± 0.24
